Measured values taken from patent US20230321086A1, “METHODS AND MATERIALS FOR INHIBITING NICOTINAMIDE PHOSPHORIBOSYLTRANSFERASE ACTIVITY” (Universiy of Pittsburgh - Of the Commonwealth System of …, priority 2020, published 2023).

These compounds were tested on A431 cells (assay: Assay for total NADH and NAD+ measurements in cells). Conditions: percent of NAD level of untreated control cells (100 = no change).
Assay type: cell-based
Parameters: C: change in NAD levels in response to test compound, shown as % of NAD activity in the absence of test compound: concentration or dose not given beside the values
Protocol: 2,000 cells/well and, at the same time, test compounds dissolved in media at the desired concentration were added to each well. The treated cells were incubated overnight in C02 incubator. The cells were washed 6 times with PBS with 1 mM CaCl2) and 1 mM MgCl2. In the last wash, 10 μL of PBS with 1 mM CaCl2) and 1 mM MgCl2 per well were left in each well. Immediately thereafter, 10 μL 0.4% dodecyltrimethylammonium bromide (DTAB) in phosphate buffer pH 8.0 as added, and the plates were shaked at 1000 rpm for 5 minutes. 60 μL reaction mix was added, and fluorescence at Ex/Em 530/585 was immediately monitored. A linear increase should be achieved with 8 cycles every 92 seconds, 10 number of flashes/well/cycle. The reaction mix was prepared per the following table, respecting the amount and order in which each component was added:
All assays were performed in A431 cells. Referring to the tables below, activity: “+” ≥25 μM, “++” ≥1 μM and <25 μM, and “+++”<1 μM.
In each table header, A: NAMPT enzyme inhibitory activity, IC50 (μM); B: Cellular NAD inhibitory activity, IC50 (μM); and C: change in NAD levels in response to test compound, shown as % of NAD activity in the absence of test compound. […] A percentage of 100 percent would indicate no increase or decrease in NAD levels as compared to that measured for untreated control cells, while a percentage of 50 percent would indicate a decrease in NAD levels of 50 percent as compared to that measured for untreated control cells.

Going from `CN1CCN(C(=O)c2ccc3nc(-c4ccc(F)cc4)c(-c4ccc(OC(F)(F)F)cc4)nc3c2)CC1` [BC19399] to `CN1CCN(C(=O)c2ccc3nc(-c4ccc(OC(F)(F)F)cc4)c(-c4ccc(OC(F)(F)F)cc4)nc3c2)CC1` [BC19445], the “C: change in NAD levels in response to test compound, shown as % of NAD activity in the absence of test compound” value falls from 92% to 14%.

Going from `CN1CCN(C(=O)c2cccc3nc(-c4ccc(F)cc4)c(-c4ccc(F)cc4)nc23)CC1` [BC19400] to `CN1CCN(C(=O)c2cnc3nc(-c4ccc(F)cc4)c(-c4ccc(F)cc4)nc3c2)CC1` [BC19408], the “C: change in NAD levels in response to test compound, shown as % of NAD activity in the absence of test compound” value rises from 76% to 95%.

Going from `Cn1cc(-c2cnc3nc(-c4ccc(F)cc4)c(-c4ccc(F)cc4)nc3c2)nn1` [BC19401] to `CCCn1cc(-c2cnc3nc(-c4ccc(F)cc4)c(-c4ccc(F)cc4)nc3c2)nn1` [BC19402], the “C: change in NAD levels in response to test compound, shown as % of NAD activity in the absence of test compound” value rises from 55% to 64%.

First: Fc1ccc(-c2nc3cccnc3nc2-c2ccc(F)cc2)cc1 [BC19403]
Second: Oc1ccc2nc(-c3ccc(F)cc3)c(-c3ccc(F)cc3)nc2n1 [BC19448]
The “C: change in NAD levels in response to test compound, shown as % of NAD activity in the absence of test compound” value of the first is lower: 68% for the first, 78% for the second.

Compared with `OCCn1ncc(-c2ccc3nc(-c4ccc(F)cc4)c(-c4ccc(F)cc4)nc3c2)n1` [BC19404], `O=C(NCCO)Nc1ccc2nc(-c3ccc(F)cc3)c(-c3ccc(F)cc3)nc2c1` [BC19566] is higher in “C: change in NAD levels in response to test compound, shown as % of NAD activity in the absence of test compound” value: 65% for the first, 77% for the second.

First: CN1CCN(C(=O)c2ccc3nc(-c4ccc(F)cc4F)c(-c4ccccc4)nc3c2)CC1 [BC19405]
Second: C#CCNC(=O)c1ccc2nc(-c3ccc(F)cc3F)c(-c3ccccc3)nc2c1 [BC19406]
The “C: change in NAD levels in response to test compound, shown as % of NAD activity in the absence of test compound” value of the first is lower: 69% for the first, 93% for the second.

Compared with `CNC(=O)c1ccc2nc(-c3ccc(OC(F)(F)F)cc3)c(-c3ccc(OC(F)(F)F)cc3)nc2c1` [BC19447], `O=C(NCCO)c1ccc2nc(-c3ccc(OC(F)(F)F)cc3)c(-c3ccc(OC(F)(F)F)cc3)nc2c1` [BC19453] is higher in “C: change in NAD levels in response to test compound, shown as % of NAD activity in the absence of test compound” value: 50% for the first, 88% for the second.

First: CN1CCN(C(=O)c2ccc3nc(-c4ccc(Cl)cc4)c(-c4ccc(Cl)cc4)nc3c2)CC1 [BC19450]
Second: O=C(NCCN1CCOCC1)c1ccc2nc(-c3ccc(Cl)cc3)c(-c3ccc(Cl)cc3)nc2c1 [BC19497]
The “C: change in NAD levels in response to test compound, shown as % of NAD activity in the absence of test compound” value of the first is higher: 78% for the first, 49% for the second.

Going from `C#CCNC(=O)c1ccc2nc(-c3ccc(Cl)cc3)c(-c3ccc(Cl)cc3)nc2c1` [BC19451] to `CCNC(=O)Nc1ccc2nc(-c3ccc(F)cc3)c(-c3ccc(F)cc3)nc2c1` [BC19563], the “C: change in NAD levels in response to test compound, shown as % of NAD activity in the absence of test compound” value rises from 57% to 90%.

First: COCC(=O)N1CCC(C(=O)Nc2ccc3nc(-c4ccc(F)cc4)c(-c4ccc(F)cc4)nc3c2)CC1 [BC19494]
Second: O=C(NCC1CC1)Nc1ccc2nc(-c3ccc(F)cc3)c(-c3ccc(F)cc3)nc2c1 [BC19569]
The “C: change in NAD levels in response to test compound, shown as % of NAD activity in the absence of test compound” value of the first is lower: 52% for the first, 57% for the second.

First: Cn1cnnc1-c1cnc2nc(-c3ccc(F)cc3)c(-c3ccc(F)cc3)nc2c1 [BC19496]
Second: N#Cc1ccc2nc(-c3ccc(F)cc3)c(-c3ccc(F)cc3)nc2n1 [BC19512]
The “C: change in NAD levels in response to test compound, shown as % of NAD activity in the absence of test compound” value of the first is higher: 95% for the first, 85% for the second.

First: CN1CCN(C(=O)c2ccc3nc(-c4cccc(N(C)C)c4)c(-c4cccc(N(C)C)c4)nc3c2)CC1 [BC19498]
Second: O=C(c1ccc2nc(-c3ccc(F)cc3)c(-c3ccc(F)cc3)nc2c1)N1CCN(CCO)CC1 [BC19513]
The “C: change in NAD levels in response to test compound, shown as % of NAD activity in the absence of test compound” value of the first is higher: 66% for the first, 49% for the second.

First: O=C(NCCN1CCOCC1)c1ccc2nc(-c3ccc(OC(F)(F)F)cc3)c(-c3ccc(OC(F)(F)F)cc3)nc2c1 [BC19503]
Second: O=C(NCCN1CCOCC1)Nc1ccc2nc(-c3ccc(F)cc3)c(-c3ccc(F)cc3)nc2c1 [BC19567]
The “C: change in NAD levels in response to test compound, shown as % of NAD activity in the absence of test compound” value of the first is lower: 43% for the first, 46% for the second.

First: O=S(=O)(NCCN1CCOCC1)c1ccc2nc(-c3ccc(F)cc3)c(-c3ccc(F)cc3)nc2c1 [BC19504]
Second: O=S(=O)(NCCCN1CCOCC1)c1ccc2nc(-c3ccc(F)cc3)c(-c3ccc(F)cc3)nc2c1 [BC19508]
The “C: change in NAD levels in response to test compound, shown as % of NAD activity in the absence of test compound” value of the first is higher: 58% for the first, 28% for the second.

Compared with `O=S(=O)(NC1CC1)c1ccc2nc(-c3ccc(F)cc3)c(-c3ccc(F)cc3)nc2c1` [BC19505], `O=S(=O)(NCC1CC1)c1ccc2nc(-c3ccc(F)cc3)c(-c3ccc(F)cc3)nc2c1` [BC19506] is higher in “C: change in NAD levels in response to test compound, shown as % of NAD activity in the absence of test compound” value: 30% for the first, 66% for the second.

Compared with `COCCNS(=O)(=O)c1ccc2nc(-c3ccc(F)cc3)c(-c3ccc(F)cc3)nc2c1` [BC19507], `COCCCNS(=O)(=O)c1ccc2nc(-c3ccc(F)cc3)c(-c3ccc(F)cc3)nc2c1` [BC19554] is lower in “C: change in NAD levels in response to test compound, shown as % of NAD activity in the absence of test compound” value: 53% for the first, 52% for the second.

Going from `O=S(=O)(NCCCO)c1ccc2nc(-c3ccc(F)cc3)c(-c3ccc(F)cc3)nc2c1` [BC19509] to `CN(C)CCCNS(=O)(=O)c1ccc2nc(-c3ccc(F)cc3)c(-c3ccc(F)cc3)nc2c1` [BC19562], the “C: change in NAD levels in response to test compound, shown as % of NAD activity in the absence of test compound” value falls from 66% to 1%.

Going from `CN1CCN(c2ccc3nc(-c4ccc(F)cc4)c(-c4ccc(F)cc4)nc3c2)CC1` [BC19510] to `CC(=O)N1CCN(c2ccc3nc(-c4ccc(F)cc4)c(-c4ccc(F)cc4)nc3c2)CC1` [BC19511], the “C: change in NAD levels in response to test compound, shown as % of NAD activity in the absence of test compound” value falls from 41% to 26%.

First: O=C(c1ccc2nc(-c3ccc(F)cc3)c(-c3ccc(F)cc3)nc2c1)N1CCN(CCOCCO)CC1 [BC19514]
Second: CN1CCN(CCCNS(=O)(=O)c2ccc3nc(-c4ccc(F)cc4)c(-c4ccc(F)cc4)nc3c2)CC1 [BC19561]
The “C: change in NAD levels in response to test compound, shown as % of NAD activity in the absence of test compound” value of the first is higher: 73% for the first, 24% for the second.

First: CN(C)CCNS(=O)(=O)c1ccc2nc(-c3ccc(F)cc3)c(-c3ccc(F)cc3)nc2c1 [BC19555]
Second: CCNS(=O)(=O)c1ccc2nc(-c3ccc(F)cc3)c(-c3ccc(F)cc3)nc2c1 [BC19556]
The “C: change in NAD levels in response to test compound, shown as % of NAD activity in the absence of test compound” value of the first is lower: 1% for the first, 44% for the second.

First: O=S(=O)(NCc1cccnc1)c1ccc2nc(-c3ccc(F)cc3)c(-c3ccc(F)cc3)nc2c1 [BC19557]
Second: O=S(=O)(NCc1ccccn1)c1ccc2nc(-c3ccc(F)cc3)c(-c3ccc(F)cc3)nc2c1 [BC19559]
The “C: change in NAD levels in response to test compound, shown as % of NAD activity in the absence of test compound” value of the first is higher: 63% for the first, 42% for the second.

Going from `O=C1CCCN1CCCNS(=O)(=O)c1ccc2nc(-c3ccc(F)cc3)c(-c3ccc(F)cc3)nc2c1` [BC19560] to `O=C(NCCCO)Nc1ccc2nc(-c3ccc(F)cc3)c(-c3ccc(F)cc3)nc2c1` [BC19575], the “C: change in NAD levels in response to test compound, shown as % of NAD activity in the absence of test compound” value rises from 51% to 78%.

First: CN(C)CCNC(=O)Nc1ccc2nc(-c3ccc(F)cc3)c(-c3ccc(F)cc3)nc2c1 [BC19564]
Second: CN(C)CCCNC(=O)Nc1ccc2nc(-c3ccc(F)cc3)c(-c3ccc(F)cc3)nc2c1 [BC19573]
The “C: change in NAD levels in response to test compound, shown as % of NAD activity in the absence of test compound” value of the first is lower: 5% for the first, 11% for the second.

Going from `COCCNC(=O)Nc1ccc2nc(-c3ccc(F)cc3)c(-c3ccc(F)cc3)nc2c1` [BC19565] to `COCCCNC(=O)Nc1ccc2nc(-c3ccc(F)cc3)c(-c3ccc(F)cc3)nc2c1` [BC19574], the “C: change in NAD levels in response to test compound, shown as % of NAD activity in the absence of test compound” value falls from 65% to 61%.

Going from `O=C(Nc1ccc2nc(-c3ccc(F)cc3)c(-c3ccc(F)cc3)nc2c1)NC1CC1` [BC19568] to `O=C(NCc1ccccn1)Nc1ccc2nc(-c3ccc(F)cc3)c(-c3ccc(F)cc3)nc2c1` [BC19570], the “C: change in NAD levels in response to test compound, shown as % of NAD activity in the absence of test compound” value falls from 81% to 29%.

First: O=C(NCc1cccnc1)Nc1ccc2nc(-c3ccc(F)cc3)c(-c3ccc(F)cc3)nc2c1 [BC19571]
Second: O=C(NCc1ccncc1)Nc1ccc2nc(-c3ccc(F)cc3)c(-c3ccc(F)cc3)nc2c1 [BC19572]
The “C: change in NAD levels in response to test compound, shown as % of NAD activity in the absence of test compound” value of the first is lower: 10% for the first, 26% for the second.
